According to patent US8062653B2, “Controlled release of nitric oxide and drugs from functionalized macromers and oligomers” (Bezwada Biomedical, LLC, priority 2009, dated 2011):

Assays:
[1] = prior-art NO-releasing small molecules; cited from earlier work

melting point | Compound | lifetime in physiological solution [1]
100 to 102 °C | O=C(CCCCCO[N+](=O)[O-])Oc1ccc(-c2coc3cc(OC(=O)CCCCCO[N+](=O)[O-])ccc3c2=O)cc1 | –
– | CC(C)(SN=O)C(N)C(=O)O (racemic) [S-nitroso-D,L-penicillamine] | no more than about an hour
– | N[C@@H](CSN=O)C(=O)O [S-nitrosocysteine] | no more than about an hour
